We go through 12 compounds from patent US11136324B2, “Substituted imidazoles as apoptosis signal regulating kinase 1 inhibitors” (Jiangsu Hansoh Pharmaceutical Group Co., Ltd., priority 2017, dated 2021).

The nature of data set [1]: Pharmacokinetic (PK) assay in mice. Format: in vivo. Particulars: Balb/c male mice, single intragastric administration, 5 mg/kg, plasma; for AUC(0-t) / AUC(0-inf) / half-life / MRT / Cmax: mouse, po; for AUC(0-t): read-out: Area under curve AUC0-t; for AUC(0-inf): read-out: Area under curve AUC0-∞; for half-life: read-out: Half-life t1/2 (converted); for MRT: read-out: Mean residence time MRT; for Cmax: read-out: Plasma concentration Cmax. How it is done: 2. Pharmacokinetic (PK) Assay in Mice
The pharmacokinetic test of the preferred examples of the present invention in mice was carried out in Balb/c male mice (Shanghai Jiesijie Laboratory Animal Co., LTD).
Administration mode: single intragastric administration.
Administration dosage: 5 mg/10 ml/kg.
Formulation: 0.5% CMC-Na, ultrasonic dissolution.
Sampling points: 0.5, 1, 2, 4, 6, 8 and 24 hours after administration.
1) 0.1 mL of blood was taken from the orbit, placed in a K2EDTA tube, and centrifuged for 5˜20 min at room temperature at 1000˜3000×g to separate the plasma, which was then stored at −80° C.
2) 160 μL of acetonitrile was added to 40 μL of plasma sample for precipitation, and then the mixture was centrifuged for 5˜20 minutes at 500˜2000×g.
3) 100 μL, of processed supernatant was taken and analyzed by LC/MS/MS assay to determine the concentration of the test compound.
LC-MS/MS Assay: • Liquid chromatography condition: Shimadzu LC-20AD pump • Mass spectrometry condition: AB Sciex API 4000 mass spectrometer • Chromatographic column: phenomenex Gemiu 5 μm C18 50×4.6 mm • Mobile phase: solution A was 0.1% aqueous formic acid solution, and solution B was acetonitrile • Flow rate: 0.8 mL/min • Elution time: 0-3.5 minutes gradient elution
The main parameters were calculated using WinNonlin 6.1.

The target of a further data set is ASK1 kinase (Homo sapiens (Human), UniProt Q99683). Nature of the data set: ASK1 enzymatic test (TR-FRET). The data set is classed as biochemical. The conditions noted are these: ASK1 kinase activity. How it is done:
In this test, the fluorescence-resonance energy transfer (TR-FRET) method was used to determine the inhibition effect of the test compounds on ASK1 kinase activity, and the half maximal inhibitory concentration IC50 of the compounds on ASK1 kinase activity was obtained.
1) 1˜5 μL of ASK1 enzyme solution was added to a 384-well plate, and the final concentration of the enzyme was 0.220 nM.
2) 1˜5 μL of gradient-diluted compound solution was added.
3) 1˜5 μL of a substrate mixture containing substrate polypeptides (final concentration: 100˜5000 nM) and ATP (final concentration: 100˜1000 uM) were added.
4) The mixture was incubated at room temperature for 0.5 to 5 hours.
5) 10 μL of EDTA and test solution containing labeled antibody were added, and the plate was incubated at room temperature for 2 to 24 hours.
6) The fluorescence signal value of each well was determined by a microplate reader at about 615 nm and 665 nm.
7) The inhibition rate was calculated by the fluorescence signal value.
8) The IC50 of the compound was obtained by curve fitting according to the inhibition rate at different concentrations.

Chain of ASK1 kinase (Q99683 whole entry): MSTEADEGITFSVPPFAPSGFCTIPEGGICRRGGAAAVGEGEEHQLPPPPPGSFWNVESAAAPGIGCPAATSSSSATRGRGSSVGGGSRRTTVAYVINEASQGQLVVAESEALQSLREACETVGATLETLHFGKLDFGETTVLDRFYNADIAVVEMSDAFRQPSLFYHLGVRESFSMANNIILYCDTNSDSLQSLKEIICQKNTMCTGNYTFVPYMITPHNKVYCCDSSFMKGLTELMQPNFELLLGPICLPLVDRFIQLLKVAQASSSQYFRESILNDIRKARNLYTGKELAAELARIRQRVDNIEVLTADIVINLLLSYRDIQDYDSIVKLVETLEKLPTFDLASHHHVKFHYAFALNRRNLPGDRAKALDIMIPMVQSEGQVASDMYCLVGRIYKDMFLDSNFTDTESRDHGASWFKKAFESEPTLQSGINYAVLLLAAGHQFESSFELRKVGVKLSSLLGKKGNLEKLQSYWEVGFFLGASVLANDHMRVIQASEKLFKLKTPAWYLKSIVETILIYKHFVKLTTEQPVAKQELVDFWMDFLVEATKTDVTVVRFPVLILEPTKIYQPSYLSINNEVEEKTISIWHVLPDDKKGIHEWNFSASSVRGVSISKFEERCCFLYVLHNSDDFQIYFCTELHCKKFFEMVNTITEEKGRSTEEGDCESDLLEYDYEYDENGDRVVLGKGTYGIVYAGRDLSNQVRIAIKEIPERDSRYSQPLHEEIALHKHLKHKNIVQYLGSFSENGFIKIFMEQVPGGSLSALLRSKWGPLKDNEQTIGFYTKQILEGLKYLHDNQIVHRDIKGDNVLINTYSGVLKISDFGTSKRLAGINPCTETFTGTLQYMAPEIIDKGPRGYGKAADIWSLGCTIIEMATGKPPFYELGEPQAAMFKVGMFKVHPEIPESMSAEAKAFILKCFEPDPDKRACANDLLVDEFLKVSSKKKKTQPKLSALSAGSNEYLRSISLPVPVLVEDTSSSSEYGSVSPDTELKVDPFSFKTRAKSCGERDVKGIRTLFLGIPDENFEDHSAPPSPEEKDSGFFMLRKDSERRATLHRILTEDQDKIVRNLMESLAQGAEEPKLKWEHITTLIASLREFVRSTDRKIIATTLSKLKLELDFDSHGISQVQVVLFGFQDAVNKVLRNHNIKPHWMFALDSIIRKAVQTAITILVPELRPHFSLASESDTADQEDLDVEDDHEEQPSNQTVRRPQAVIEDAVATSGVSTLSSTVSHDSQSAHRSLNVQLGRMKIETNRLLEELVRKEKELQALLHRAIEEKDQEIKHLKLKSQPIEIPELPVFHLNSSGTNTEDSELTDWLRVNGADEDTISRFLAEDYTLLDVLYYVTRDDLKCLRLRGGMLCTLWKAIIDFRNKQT

As usually defined, the MRT is the average time that molecules of a dose stay in the body. Broadly, the IC50 is the concentration that inhibits the measured activity by half. A lower IC50 goes with greater potency in that assay. Take `COC[C@@H]1CCc2nnc(-c3cccc(NC(=O)c4cc(-n5cnc(C6CC6)c5)c(C)cc4F)n3)n21` [Example 11, (S)-5-(4-Cyclopropyl-1H-imidazol-1-yl)-2-fluoro-N-(6-(5-(methoxymethyl)-6,7-dihydro-5H-pyrrolo[2,1-c][1,2,4]triazol-3-yl)pyridin-2-yl)-4-methylbenzamide]: in data set [1], the Peak time tmax amounted to 1 h, the AUC(0-t) is 29400 ng·h/mL, the AUC(0-inf) is 29400 ng·h/mL and the half-life is 1.1 h. Also, in data set [1], the MRT stood at 2.1 h and the Cmax came out at 13200 ng/mL. At ASK1 kinase, inhibition was half-maximal at 10.6 nM (IC50).

With `Cc1cc(F)c(C(=O)Nc2cccc(-c3nnc4n3[C@H](C)CC4)n2)cc1-n1cnc(C(C)C)c1` [Example 13, (R)-2-Fluoro-5-(4-isopropyl-1H-imidazol-1-yl)-4-methyl-N-(6-(5-methyl-6,7-dihydro-5H-pyrrolo[2,1-c][1,2,4]triazol-3-yl)pyridin-2-yl)benzamide], in data set [1], the Peak time tmax amounted to 1 h, the AUC(0-t) came out at 11700 ng·h/mL, the AUC(0-inf) turned out to be 11800 ng·h/mL and the half-life was 1 h. Further, in data set [1], the mean residence time MRT stood at 2 h and the Cmax came out at 5060 ng/mL. The IC50 on ASK1 kinase was determined as 2.7 nM.

`Cc1cc(F)c(C(=O)Nc2cccc(-c3nnc4n3[C@@H](C)CC4)n2)cc1-n1cnc(C(C)C)c1` [Example 14, (S)-2-Fluoro-5-(4-isopropyl-1H-imidazol-1-yl)-4-methyl-N-(6-(5-methyl-6,7-dihydro-5H-pyrrolo[2,1-c][1,2,4]triazol-3-yl)pyridin-2-yl)benzamide]: in data set [1], the Peak time tmax stood at 1 h, the AUC(0-t) was 21000 ng·h/mL, the AUC(0-inf) is 21000 ng·h/mL and the half-life is 1.3 h. Besides, in data set [1], the mean residence time MRT is 2.8 h and the Cmax is 6150 ng/mL. The concentration for half-maximal inhibition (IC50) at ASK1 kinase stood at 9 nM.

Consider `Cc1cc(F)c(C(=O)Nc2cccc(-c3nnc4n3[C@@H](C)CC4)n2)cc1-n1cnc(C(C)(C)C)c1` [Example 16, (S)-5-(4-(tert-Butyl)-1H-imidazol-1-yl)-2-fluoro-4-methyl-N-(6-(5-methyl-6,7-dihydro-5H-pyrrolo[2,1-c][1,2,4]triazol-3-yl)pyridin-2-yl)benzamide], for which, in data set [1], the Peak time tmax stood at 1 h, the AUC(0-t) came to 13600 ng·h/mL, the AUC(0-inf) turned out to be 13900 ng·h/mL and the half-life is 1.4 h. Besides, in data set [1], the mean residence time MRT was determined as 2 h and the Cmax amounted to 6580 ng/mL. This compound displayed an IC50 on ASK1 kinase of 4.1 nM.

In the case of `Cc1cc(F)c(C(=O)Nc2cccc(-c3nnc4n3CC(C)(C)C4)n2)cc1-n1cnc(C2CC2)c1` [Example 32, 5-(4-Cyclopropyl-1H-imidazol-1-yl)-N-(6-(6,6-dimethyl-6,7-dihydro-5H-pyrrolo[2,1-c][1,2,4]triazol-3-yl)pyridin-2-yl)-2-fluoro-4-methylbenzamide], in data set [1], the Peak time tmax came to 1 h, the AUC(0-t) was 46400 ng·h/mL, the AUC(0-inf) was determined as 46400 ng·h/mL and the half-life is 2.6 h. Further, in data set [1], the MRT came out at 3.9 h and the Cmax was found to be 10900 ng/mL. Further, 4.9 nM corresponded to half-maximal inhibition against ASK1 kinase (IC50).

As to `Cc1cc(F)c(C(=O)Nc2cccc(-c3nnc4n3CC(C)C4)n2)cc1-n1cnc(C2CC2)c1` (stereo not drawn) [Example 33, 5-(4-Cyclopropyl-1H-imidazol-1-yl)-2-fluoro-4-methyl-N-(6-(6-methyl-6,7-dihydro-5H-pyrrolo[2,1-c][1,2,4]triazol-3-yl)pyridin-2-yl)benzamide], in data set [1], the Peak time tmax came to 0.5 h, the AUC(0-t) was 47900 ng·h/mL, the AUC(0-inf) turned out to be 48600 ng·h/mL and the half-life is 4.7 h. Further, in data set [1], the MRT was found to be 5.9 h and the Cmax was found to be 5170 ng/mL. The compound further gave an IC50 on ASK1 kinase of 7.2 nM.

Turning to `Cc1cc(F)c(C(=O)Nc2cccc(-c3nnc4n3C[C@H](C)C4)n2)cc1-n1cnc(C2CC2)c1` [Example 34, (R)-5-(4-Cyclopropyl-1H-imidazol-1-yl)-2-fluoro-4-methyl-N-(6-(6-methyl-6,7-dihydro-5H-pyrrolo[2,1-c][1,2,4]triazol-3-yl)pyridin-2-yl)benzamide], in data set [1], the Peak time tmax was 1 h, the AUC(0-t) was 81100 ng·h/mL, the AUC(0-inf) amounted to 81200 ng·h/mL and the half-life was 2.5 h. Further, in data set [1], the mean residence time (MRT) came out at 4.4 h and the Cmax came to 13500 ng/mL. Moreover, the half-inhibitory concentration (IC50) against ASK1 kinase was found to be 5.2 nM.

As for `C=CC1CCc2nnc(-c3cccc(NC(=O)c4cc(-n5cnc(C6CC6)c5)c(C)cc4F)n3)n21` (stereo not drawn) [Example 38, 5-(4-Cyclopropyl-1H-imidazol-1-yl)-2-fluoro-4-methyl-N-(6-(5-vinyl-6,7-dihydro-5H-pyrrolo[2,1-c][1,2,4]triazol-3-yl)pyridin-2-yl)benzamide], in data set [1], the Peak time tmax amounted to 0.5 h, the AUC(0-t) was 129000 ng·h/mL, the AUC(0-inf) was determined as 130000 ng·h/mL and the half-life was 2.8 h. Besides, in data set [1], the MRT is 5.1 h and the Cmax was determined as 19400 ng/mL. This compound also came in with a half-maximal inhibitory concentration (IC50) against ASK1 kinase of 4.1 nM.

In the case of `Cc1cc(F)c(C(=O)Nc2cccc(-c3nnc4n3C(C(F)(F)F)CC4)n2)cc1-n1cnc(C2CC2)c1` (stereo not drawn) [Example 41, 5-(4-Cyclopropyl-1H-imidazol-1-yl)-2-fluoro-4-methyl-N-(6-(5-(trifluoromethyl)-6,7-di hydro-5H-pyrrolo[2,1-c][1,2,4]triazol-3-yl)pyridin-2-yl)benzamide], in data set [1], the Peak time tmax came to 1 h, the AUC(0-t) amounted to 83900 ng·h/mL, the AUC(0-inf) came to 83900 ng·h/mL and the half-life is 2 h. In addition, in data set [1], the mean residence time MRT worked out at 4 h and the Cmax is 17100 ng/mL. For the same compound, half-maximal inhibition at ASK1 kinase (IC50) required 7.7 nM.

With `Cc1cc(F)c(C(=O)Nc2cccc(-c3nnc4n3[C@H](CF)CC4)n2)cc1-n1cnc(C2CC2)c1` [Example 51, (S)-5-(4-Cyclopropyl-1H-imidazol-1-yl)-2-fluoro-N-(6-(5-(fluoromethyl)-6,7-dihydro-5H-pyrrolo[2,1-c][1,2,4]triazol-3-yl)pyridin-2-yl)-4-methylbenzamide], in data set [1], the Peak time tmax came to 1 h, the AUC(0-t) came to 57200 ng·h/mL, the AUC(0-inf) worked out at 57700 ng·h/mL and the half-life is 3.5 h. For the same compound, in data set [1], the MRT is 5.8 h and the Cmax was 5890 ng/mL. For the same compound, the IC50 at ASK1 kinase was 4.9 nM.

With `CC[C@H]1CCc2nnc(-c3cccc(NC(=O)c4cc(-n5cnc(C6CC6)c5)c(C)cc4F)n3)n21` [Example 56, (S)-5-(4-Cyclopropyl-1H-imidazol-1-yl)-N-(6-(5-ethyl-6,7-dihydro-5H-pyrrolo[2,1-c][1,2,4]triazol-3-yl)pyridin-2-yl)-2-fluoro-4-methylbenzamide], in data set [1], the Peak time tmax turned out to be 1 h, the AUC(0-t) stood at 38600 ng·h/mL, the AUC(0-inf) was found to be 42500 ng·h/mL and the half-life was 2.4 h. In addition, in data set [1], the MRT amounted to 3.6 h and the Cmax came to 9940 ng/mL. The concentration for half-maximal inhibition (IC50) at ASK1 kinase amounted to 5 nM.

On to `CCC[C@@H]1CCc2nnc(-c3cccc(NC(=O)c4cc(-n5cnc(C6CC6)c5)c(C)cc4F)n3)n21` [Example 59, (R)-5-(4-Cyclopropyl-1H-imidazol-1-yl)-2-fluoro-4-methyl-N-(6-(5-propyl-6,7-dihydro-5H-pyrrolo[2,1-c][1,2,4]triazol-3-yl)pyridin-2-yl)benzamide], for which, in data set [1], the Peak time tmax stood at 1 h, the AUC(0-t) stood at 19700 ng·h/mL, the AUC(0-inf) stood at 20200 ng·h/mL and the half-life is 1.4 h. In data set [1], the mean residence time (MRT) came to 2.3 h and the Cmax was determined as 7590 ng/mL. The same compound registered an IC50 against ASK1 kinase of 2.9 nM.
